In patent US10858360B2, “Tricyclic gyrase inhibitors” (priority 2011, dated 2020):
In brackets after ≈: the same amount, converted by molar mass.

Key:
S. aureus ATCC 13709 = test: MIC, S. aureus ATCC 13709 (Alamar Blue broth microdilution); assay type: cell-based; conditions: Alamar Blue read after overnight incubation at 35° C.; for MIC: Staphylococcus aureus, ATCC13709, S. aureus; for MIC Sa: S. aureus
E. coli ATCC 25922 = test: MIC, E. coli ATCC 25922; assay type: cell-based; conditions: Alamar Blue read after overnight incubation at 35° C.; for MIC: Escherichia coli, ATCC25922, E. coli; for MIC Ec: E. coli

Compound | MIC (S. aureus ATCC 13709) | MIC (E. coli ATCC 25922) | MIC Sa (S. aureus ATCC 13709) | MIC Ec (E. coli ATCC 25922)
NC1CCN(c2nc(Sc3cnc4nccnc4c3)nc3[nH]c4ccccc4c23)C1 (stereo not shown) [1.6] | 32 µg/mL (≈ 77.2 µM) | > 64 µg/mL | – | –
CNc1cc(F)cc2c1[nH]c1nc(Oc3cnc(N4CCCC4=O)nc3)nc(N3C[C@H](N)C4(CC4)C3)c12 [4.346] | ≤ 0.5 µg/mL | 4 µg/mL (≈ 7.94 µM) | – | –
CNc1cc(F)cc2c1[nH]c1nc(Oc3cnc(C)nc3)nc(NC3CCCC[C@@H]3N)c12 (stereo partly shown) [4.109] | – | – | ≤0.5 µg/mL | 1 µg/mL (≈ 2.29 µM)
CNc1ncc(Oc2nc(N3CCC4(CC4N)C3)c3c(n2)[nH]c2c(NC)cc(F)cc23)cn1 (stereo not shown) [4.220] | ≤ 0.5 µg/mL | ≤ 0.5 µg/mL | – | –
CNc1cc(F)cc2c1[nH]c1nc(Oc3cncnc3)ncc12 [4.031] | 2 µg/mL (≈ 6.45 µM) | > 16 µg/mL | – | –
CNc1cc(F)cc2c1[nH]c1nc(Oc3cncc(C(N)=O)c3)nc(N3CC4C(N)C4C3)c12 (stereo not shown) [4.237] | ≤ 0.5 µg/mL | 2 µg/mL (≈ 4.46 µM) | – | –
CNc1cc(F)cc2c1[nH]c1nc(Oc3ccnnc3)nc(N3CC(N)C4(CC4)C3)c12 (stereo not shown) [4.230] | – | – | 32 µg/mL (≈ 76.1 µM) | >16 µg/mL
CNc1cccc2c1[nH]c1nc(Sc3cncc(S(=O)(=O)NCCO)c3)nc(N3CC4C(N)C4C3)c12 (stereo not shown) [1.42] | 8 µg/mL (≈ 15.2 µM) | 32 µg/mL (≈ 60.8 µM) | – | –
CNc1cc(F)cc2c1[nH]c1nc(Oc3cnc(C)nc3)nc(N3CC(N)C4(CC4)C3)c12 (stereo not shown) [4.065] | – | – | ≤0.5 µg/mL | ≤0.5 µg/mL
CNc1cc(F)cc2c1[nH]c1nc(Oc3cnc(C#N)c(C)c3)nc(N3CC4CC3C[C@@H]4N)c12 (stereo partly shown) [4.435] | ≤ 0.5 µg/mL | ≤ 0.5 µg/mL | – | –
CNc1cc(F)cc2c1[nH]c1nc(Oc3cnc(C4CC4)nc3)nc(N3CC4C(N)C4C3)c12 (stereo not shown) [4.241] | – | – | ≤0.5 µg/mL | ≤0.5 µg/mL
CNc1cc(F)cc2c1[nH]c1nc(Oc3cncnc3)nc(N3CC4CCC(N)C3C4)c12 (stereo not shown) [4.032] | ≤ 0.5 µg/mL | 2 µg/mL (≈ 4.6 µM) | – | –
CNc1cccc2c1[nH]c1nc(Sc3cnc4ccc[n+]([O-])c4c3)nc(N3CC4C(C3)C4NC(=O)[C@H](C)N)c12 (stereo partly shown) [1.52] | 1 µg/mL (≈ 1.85 µM) | 16 µg/mL (≈ 29.5 µM) | – | –
CNc1cc(F)cc2c1[nH]c1nc(Oc3cncnc3)nc(N3C4CCC3C(N)C4)c12 (stereo not shown) [4.019] | 2 µg/mL (≈ 4.76 µM) | 16 µg/mL (≈ 38.1 µM) | – | –
CNc1cc(F)cc2c1[nH]c1nc(Oc3cnc(C4CC4)nc3)nc(N3CC4CCC(CN)C4C3)c12 (stereo not shown) [4.253] | ≤ 0.5 µg/mL | ≤ 0.5 µg/mL | – | –
CNc1cc(F)cc2c1[nH]c1nc(Oc3cnc(N)nc3)nc(N3CCC4(CC4N)C3)c12 (mixture of isomers) [4.174] | – | – | ≤0.5 µg/mL | ≤0.5 µg/mL

Compound | MIC (S. aureus ATCC 13709) | MIC (E. coli ATCC 25922) | MIC Sa (S. aureus ATCC 13709) | MIC Ec (E. coli ATCC 25922)
CNc1cc(F)cc2c1[nH]c1nc(Oc3cnc(SC)nc3)nc(N3CC4CC(N)C4C3)c12 (stereo not shown) [4.196] | ≤ 0.5 µg/mL | ≤ 0.5 µg/mL | – | –
CNc1cc(F)cc2c1[nH]c1nc(Oc3cnc(C)nc3)nc(N3CC4NCCOC4C3)c12 (stereo not shown) [4.114] | – | – | ≤0.5 µg/mL | 2 µg/mL (≈ 4.44 µM)
CNc1cccc2c1[nH]c1nc(Oc3cnc(C)nc3)nc(N3C[C@H](N)C4(CC4)C3)c12 [3.49] | ≤ 0.5 µg/mL | ≤ 0.5 µg/mL | – | –
CNc1cc(F)cc2c1[nH]c1nc(Oc3cnc(C)nc3)nc(-c3ccc(F)cc3CN)c12 [4.420] | 2 µg/mL (≈ 4.47 µM) | > 16 µg/mL | – | –
CNc1cc(F)cc2c1[nH]c1nc(Oc3cnc(C(C)(C)O)nc3)nc(N3CC4C[C@@H](N)C4C3)c12 (stereo partly shown) [4.412] | ≤ 0.5 µg/mL | ≤ 0.5 µg/mL | – | –
CNc1cc(F)cc2c1[nH]c1nc(Oc3cnc(C)nc3)nc(N3CCC4(CCC4N)CC3)c12 (stereo not shown) [4.139] | – | – | ≤0.5 µg/mL | ≤0.5 µg/mL
CNc1cccc2c1[nH]c1nc(Sc3cnc4cccnc4c3)nc(N3CC4C(N)C4C3)c12 (stereo not shown) [1.12] | ≤ 0.5 µg/mL | 1 µg/mL (≈ 2.2 µM) | – | –
CNc1cc(F)c(F)c2c1[nH]c1nc(Oc3cncnc3)nc(N3CC(N)C4(CC4)C3)c12 (stereo not shown) [5.09] | – | – | ≤0.5 µg/mL | ≤0.5 µg/mL
CNc1cccc2c1[nH]c1nc(Sc3cnc4cccnc4c3)nc(N3CCN(C(=O)C4CCCO4)CC3)c12 (stereo not shown) [1.69] | ≤ 0.5 µg/mL | 8 µg/mL (≈ 14.8 µM) | – | –
CNc1cc(F)cc2c1[nH]c1nc(Oc3ccc(C#N)nc3)nc(N3CCC4(C[C@H]4N)C3)c12 (stereo partly shown) [4.334] | – | – | ≤0.5 µg/mL | 8 µg/mL (≈ 18 µM)
CNc1nccc2c1[nH]c1nc(Oc3cncnc3)nc(N3CC[C@@H](N)C3)c12 [7.02] | > 64 µg/mL | 32 µg/mL (≈ 84.8 µM) | – | –
CNc1cccc2c1[nH]c1nc(Sc3cnc4cccnc4c3)nc(N3CCC4(CCNCC4)C3)c12 [1.56] | 4 µg/mL (≈ 8.05 µM) | 32 µg/mL (≈ 64.4 µM) | – | –
Nc1cccc2c1[nH]c1nc(Sc3cnc4ccc[n+]([O-])c4c3)nc(N3CC4C(N)C4C3)c12 (stereo not shown) [1.8] | 64 µg/mL (≈ 140 µM) | > 64 µg/mL | – | –
CNc1cccc2c1[nH]c1nc(Sc3cnc4ccc[n+]([O-])c4c3)nc(N3CC4C(N)C4C3)c12 (stereo not shown) [1.49] | – | – | ≤0.5 µg/mL | –
CNc1cccc2c1[nH]c1nc(Sc3cnc4ccc[n+]([O-])c4c3)nc(N3CC4C(N)C4C3)c12 (stereo not shown) [1.23] | – | – | ≤0.5 µg/mL | –
CNc1cccc2c1[nH]c1nc(Sc3cnc4ccc[n+]([O-])c4c3)nc(N3CC4C(N)C4C3)c12 (stereo not shown) [1.71] | – | – | ≤0.5 µg/mL | –
